The values below come from patent US10344014B2, “Amorphous form of tetracyclic compound” (Chugai Seiyaku Kabushiki Kaisha, priority 2014, dated 2019).

Some results are limits rather than exact numbers.

Common to all, as to assay type: physicochemical
Data set [1] can be described thus: Stability test of the amorphous form, X-ray powder diffraction after storage (Example 4). Also on record: key to State of the amorphous form after storage (X-ray powder diffraction peak): ◯: no peak of diffraction angle; X: clear peak of diffraction angle. The method, then: The amorphous form of 9-ethyl-6,6-dimethyl-8-(4-morpholin-4-yl-piperidin-1-yl)-11-oxo-6,11-dihydro-5H-benzo[b]carbazole-3-carbonitrilemonohydrochloride was stored under a certain condition and transition of the state of the amorphous form of the test compound was analyzed using. X-ray power diffraction as in the Test example 1.

The nature of data set [2]: Solubility by shake flask method, 37° C. (Example 6). As to the method:
Solubility of the amorphous form and form I crystals of 9-ethyl-6,6-dimethyl-8-(4-morpholin-4-yl-piperidin-1-yl)-11-oxo-6,11-dihydro-5H-benzo[b]carbazole-3-carbonitrilemonohydrochloride was examined using a shake flask method (37° C.).

Data set [3] can be described thus: Intrinsic dissolution rate, USP chapter 1087 (Example 5). As to the method: A test of measuring intrinsic dissolution rate (according to USP chapter 1087 “APPARENT […] DISSOLUTION-DISSOLUTION TESTING PROCEDURES FOR ROTATING DISK AND STATIONARY DISK”) was performed on a composition containing the amorphous and crystalline forms (form I crystals) of 9-ethyl-6,6-dimethyl-8-(4-morpholin-4-yl-piperidin-1-yl)-11-oxo-6,11-dihydro-5H-benzo[b]carbazole-3-carbonitrilemonohydrochloride at certain ratios. It was concluded that the dissolution rate was increased when the content of the amorphous was about 15% or higher.

The nature of data set [4]: Residual rate of principal drug by HPLC after storage (Test Example 5). As to the method: The amorphous substances and the solid dispersions of 9-ethyl-6,6-dimethyl-8-(4-morpholin-4-yl-piperidin-1-yl)-11-oxo-6,11-dihydro-5H-benzo[b]carbazole-3-earbonitrile obtained in Examples 8 to 15 were tested under two conditions: i) they were stored in a thermostatic bath set at 40° C. for 3 months, and ii) they were stored in a thermostatic bath set at 40° C. and 75% RH for 3 months in an open state. Residual rates of the principal drugs were measured under following conditions of high performance liquid chromatography. It was concluded that the amorphous substances and the solid dispersions were chemically stable.
Detector: UV absorptiometer (measurement wavelength: 230 nm)
Column: stainless column of 4.6 mm in inner diameter and 15 cm in length, filled with 3.5 um of octadecylsilyl silica gel for liquid chromatography
Column temperature: fixed temperature about 35° C.
Mobile phase A: mixed solution of acetonitrile/trifluoroacetic acid (2000:1)
Mobile phase B: mixed solution of water/trifluoroacetic acid (2000:1)
Mobile phase supply: controlled concentration gradient with varying mixing ratio of mobile phases A and B as follows.

With `CCc1cc2c(cc1N1CCC(N3CCOCC3)CC1)C(C)(C)c1[nH]c3cc(C#N)ccc3c1C2=O.Cl` [Amorphous, 9-ethyl-6,6-dimethyl-8-(4-morpholin-4-yl-piperidin-1-yl)-11-oxo-6,11-dihydro-5H-benzo[b]carbazole-3-carbonitrilemonohydrochloride], the “Physical stability in accelerated test (in words)” value in data set [1] (6 months, 40° C. and 75% RH, sealed condition) was “hardly crystallized and physically stable”. The “Physical stability in long-term stability test (in words)” value in data set [1] (12 months, 30° C. and 75% RH, sealed condition) is “hardly crystallized and physically stable”. For the same compound, the “State of the amorphous form after storage (X-ray powder diffraction peak)” value in data set [1] (25° C./93% RH, Open, 1 month) was “X”; in data set [1] (25° C./93% RH, Open, 3 months) it was “X”; in data set [1] (25° C./93% RH, Open, 6 months), “X”; in data set [1] (30° C./75% RH, Sealed, 3 months), “◯”; in data set [1] (30° C./75% RH, Sealed, 6 months), “◯”; in data set [1] (30° C./75% RH, Sealed, 12 months), “◯”. Besides, the “State of the amorphous form after storage (X-ray powder diffraction peak)” value is reported as “◯” in data set [1] (40° C./75% RH, Sealed, 1 month); “◯” in data set [1] (40° C./75% RH, Sealed, 3 months); “◯” in data set [1] (40° C./75% RH, Sealed, 6 months). In addition, the Solubility in data set [2] (Acetate buffer pH 4.5, equilibration 1 hour) is 0.5 µg/mL; in data set [2] (Acetate buffer pH 4.5, equilibration 24 hours, limit of quantitation 0.0004 mg/mL), 0.4 µg/mL; in data set [2] (First solution for dissolution test (Japanese Pharmacopoeia, 16th edition), equilibration 1 hour) it was 4.5 µg/mL; in data set [2] (First solution for dissolution test (Japanese Pharmacopoeia, 16th edition), equilibration 24 hours), 2.5 µg/mL; in data set [2] (Phosphate buffer pH 8.0, equilibration 1 hour, limit of quantitation 0.0004 mg/mL), “<Lower than limit of”; in data set [2] (Phosphate buffer pH 8.0, equilibration 24 hours, limit of quantitation 0.0004 mg/mL), “<Lower than limit of”. Further, the Solubility entry in data set [2] (Simulated intestinal fluid (SIFsp), equilibration 1 hour, limit of quantitation 0.0004 mg/mL) is “<Lower than limit of”; in data set [2] (Simulated intestinal fluid (SIFsp), equilibration 24 hours, limit of quantitation 0.0004 mg/mL), “<Lower than limit of”; in data set [2] (Solution for dissolution test (4% Triton-X100 added to the first solution for dissolution test), equilibration 1 hour), 1150.6 µg/mL; in data set [2] (Solution for dissolution test (4% Triton-X100 added to the first solution for dissolution test), equilibration 24 hours) it was 1155.2 µg/mL; in data set [2] (Water, equilibration 1 hour) it was 59.9 µg/mL; in data set [2] (Water, equilibration 24 hours), 39.3 µg/mL. Besides, the “Solubility compared with form I crystals (in words)” value in data set [2] (shake flask method) is listed as “higher than that of the form I crystals”.
Consider `CCc1cc2c(cc1N1CCC(N3CCOCC3)CC1)C(C)(C)c1[nH]c3cc(C#N)ccc3c1C2=O.Cl` [9-ethyl-6,6-dimethyl-8-(4-morpholin-4-yl-piperidin-1-yl)-11-oxo-6,11-dihydro-5H-benzo[b]carbazole-3-carbonitrilemonohydrochloride], for which the Intrinsic dissolution rate in data set [3] (Amount of amorphous 5.6%) is 0.0065 mg/cm^2/min; in data set [3] (Amount of amorphous 9.8%), 0.0065 mg/cm^2/min; in data set [3] (Amount of amorphous 16.8%), 0.0112 mg/cm^2/min; in data set [3] (Amount of amorphous (%): 0 < Lower than detection limit), 0.0078 mg/cm^2/min.
In the case of `CCc1cc2c(cc1N1CCC(N3CCOCC3)CC1)C(C)(C)c1[nH]c3cc(C#N)ccc3c1C2=O` [Example 8, 9-ethyl-6,6-dimethyl-8-(4-morpholin-4-yl-piperidin-1-yl)-11-oxo-6,11-dihydro-5H-benzo[b]carbazole-3-carbonitrile], the “Retention rate after 3 months at 40° C. in 75 % RH” value in data set [4] (40° C. and 75% RH, open state) is 99.66. Moreover, in data set [4] (thermostatic bath 40° C.), the “Retention rate after 3 months at 40° C.” value is 99.60.
